Patent US5981556A, “1,3-diazolino and 1,3-diazolidino heterocycles as useful nitric oxide synthase inhibitors” (G.D. Searle & Co., priority 1997, dated 1999)
Counter-ions that a name gives are not always drawn.

How the values were obtained:
hecNOS = hecNOS (Homo sapiens, UniProt P29474); test: Citrulline Assay for Nitric Oxide Synthase, Human in vitro Enzyme Data, hecNOS; format: biochemical
[1] = tested on: endotoxin (LPS) induced rise in plasma nitrites; test: In Vivo Assay: plasma nitrites after endotoxin (Low Dose LPS); parameters: species or system Rats; conditions: plasma nitrites 5 hours post-treatment
Experimental: Rats were treated with an intraperitoneal injection of 10 mg/kg of endotoxin (LPS) with or without oral administration of the nitric oxide synthase inhibitors.

hiNOS = hiNOS (Homo sapiens, UniProt P35228); test: Citrulline Assay for Nitric Oxide Synthase, Human in vitro Enzyme Data, hiNOS; format: biochemical
hnaNOS = hnaNOS (Homo sapiens, UniProt P29475); test: Citrulline Assay for Nitric Oxide Synthase, Human in vitro Enzyme Data, hnaNOS; format: biochemical

SMILES: Cc1noc(=O)n1CCCC[C@H](N)C(=O)O [Example 2, αS-amino-4,5-dihydro-3-methyl-5-oxo-1,2,4-oxadiazole-4-hexanoic acid, monohydrochloride]
- IC50 (hecNOS): 1.14 mM
- Low Dose LPS in vivo Effective Dose (i.v.), inh. ([1]; i.v., 3 mg/kg/day): 83%
- Low Dose LPS in vivo Effective Dose (p.o.), inh. ([1]; 3 mg/kg/day): 39%
- Low Dose LPS in vivo Effective Dose (p.o.), inh. ([1]; 10 mg/kg/day): 42%
- IC50 (hiNOS): 138 µM
- IC50 (hnaNOS): 159 µM
